In US11963960B2 (Flash Therapeutics, LLC, priority 2020, dated 2024):

Biological target: N-terminally GST-tagged HCK (75-526) (Homo sapiens (Human), UniProt P08631)
Experiment: HCK Kinase Assay (ProFluor Src-Family Kinase Assay)
Assay type: biochemical
Settings: HCK inhibitory activity, 50 μM ATP; read-out: HCK Activity
Description: The procedure of ProFluor Src-Family Kinase Assay (Promega, Cat. No. V1271) was then followed. To the reaction was added 5 μL Protease solution and the mixture was incubated for 60 minutes at room temperature (22-25° C.), followed by 5 μL Stabilizer solution. The fluorescence signal was read on an Envision multilabel plate reader (Perkin Elmer). The R110 was then read at an excitation wavelength of 485 nm and an emission wavelength of 530 nm. The AMC signal was read at an excitation wavelength of 355 nm and an emission wavelength of 460 nm.

Sequence of N-terminally GST-tagged HCK (75-526) (P08631 75-526): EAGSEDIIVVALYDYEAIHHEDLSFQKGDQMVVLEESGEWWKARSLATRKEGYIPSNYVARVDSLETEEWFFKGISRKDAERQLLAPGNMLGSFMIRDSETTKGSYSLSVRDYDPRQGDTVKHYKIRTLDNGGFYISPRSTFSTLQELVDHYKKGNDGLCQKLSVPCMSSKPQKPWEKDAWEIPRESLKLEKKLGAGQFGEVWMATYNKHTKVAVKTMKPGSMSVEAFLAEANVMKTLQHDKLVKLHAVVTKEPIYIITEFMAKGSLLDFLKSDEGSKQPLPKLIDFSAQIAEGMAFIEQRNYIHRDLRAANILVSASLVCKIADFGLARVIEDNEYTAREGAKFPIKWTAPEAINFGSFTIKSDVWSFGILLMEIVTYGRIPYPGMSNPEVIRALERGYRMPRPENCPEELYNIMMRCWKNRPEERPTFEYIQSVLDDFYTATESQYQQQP

Structure (SMILES)	IC50 [nM]
C[C@@H]1CN([C@H]2CC[C@H](n3cc(-c4ccc(Oc5ccccc5)cc4)c4c(N)ncnc43)CC2)C[C@H](C)N1 [Example 25, 7-((trans)-4-((3S,5R)-3,5-dimethylpiperazin-1-yl)cyclohexyl)-5-(4-phenoxyphenyl)-7H-pyrrolo[2,3-d]pyrimidin-4-amine]	50 to 250
C[C@@H]1CN([C@H]2CC[C@@H](n3cc(-c4ccc(Oc5ccccc5)cc4)c4c(N)ncnc43)CC2)C[C@H](C)N1 [Example 26, 7-((cis)-4-((3S,5R)-3,5-dimethylpiperazin-1-yl)cyclohexyl)-5-(4-phenoxyphenyl)-7H-pyrrolo[2,3-d]pyrimidin-4-amine]	< 50
CC1(C)CN([C@H]2CC[C@H](n3nc(-c4ccc(Oc5ccccc5)cc4F)c4c(N)ncnc43)CC2)CCN1 [Example 28, 1-((trans)-4-(3,3-dimethylpiperazin-1-yl)cyclohexyl)-3-(2-fluoro-4-phenoxyphenyl)-1H-pyrazolo[3,4-d]pyrimidin-4-amine]	50 to 250
CC[C@H]1CN([C@H]2CC[C@H](n3nc(-c4ccc(Oc5ccccc5)cc4F)c4c(N)ncnc43)CC2)CCN1 [Example 31, 1-((trans)-4-((S)-3-ethylpiperazin-1-yl)cyclohexyl)-3-(2-fluoro-4-phenoxyphenyl)-1H-pyrazolo[3,4-d]pyrimidin-4-amine]	< 50
CC[C@H]1CN([C@H]2CC[C@@H](n3nc(-c4ccc(Oc5ccccc5)cc4F)c4c(N)ncnc43)CC2)CCN1 [Example 32, 1-((cis)-4-((S)-3-ethylpiperazin-1-yl)cyclohexyl)-3-(2-fluoro-4-phenoxyphenyl)-1H-pyrazolo[3,4-d]pyrimidin-4-amine]	50 to 250
CN1CCN([C@H]2CC[C@H](n3cc(-c4ccc(Oc5ccccc5)cc4)c4c(N)ncnc43)CC2)CC1CO (stereo partly drawn) [Example 33, (4-((trans)-4-(4-amino-5-(4-phenoxyphenyl)-7H-pyrrolo[2,3-d]pyrimidin-7-yl)cyclohexyl)-1-methylpiperazin-2-yl)methanol]	< 50
CN1CCN([C@H]2CC[C@H](n3cc(-c4ccc(Oc5ccccc5)cc4)c4c(N)ncnc43)CC2)CC1C(=O)O (stereo partly drawn) [Example 34, 4-((trans)-4-(4-amino-5-(4-phenoxyphenyl)-7H-pyrrolo[2,3-d]pyrimidin-7-yl)cyclohexyl)-1-methylpiperazine-2-carboxylic acid]	< 50
Nc1ncnc2c1c(-c1ccc(Oc3ccccc3)cc1)cn2C1CCC(N2CC3CCC2CN3)CC1 (stereo not drawn) [Example 37, 7-(4-(2,5-diazabicyclo[2.2.2]octan-2-yl)cyclohexyl)-5-(4-phenoxyphenyl)-7H-pyrrolo[2,3-d]pyrimidin-4-amine]	< 50
CC(=O)NN1CCN([C@H]2CC[C@H](n3cc(-c4ccc(Oc5ccccc5)cc4)c4c(N)ncnc43)CC2)CC1 [Example 40, N-(4-((trans)-4-(4-amino-5-(4-phenoxyphenyl)-7H-pyrrolo[2,3-d]pyrimidin-7-yl)cyclohexyl)piperazin-1-yl)acetamide]	< 50
CC(=O)NN1CCN([C@H]2CC[C@@H](n3cc(-c4ccc(Oc5ccccc5)cc4)c4c(N)ncnc43)CC2)CC1 [Example 41, N-(4-((cis)-4-(4-amino-5-(4-phenoxyphenyl)-7H-pyrrolo[2,3-d]pyrimidin-7-yl)cyclohexyl)piperazin-1-yl)acetamide]	< 50
Nc1ncnc2c1c(-c1ccc(Oc3ccccc3)cc1)cn2[C@H]1CC[C@H](N2CCN3C(=O)CCC3C2)CC1 (stereo partly drawn) [Example 42, 2-((trans)-4-(4-amino-5-(4-phenoxyphenyl)-7H-pyrrolo[2,3-d]pyrimidin-7-yl)cyclohexyl)hexahydropyrrolo[1,2-a]pyrazin-6(2H)-one]	50 to 250
Nc1ncnc2c1c(-c1ccc(Oc3ccccc3)cc1)cn2[C@H]1CC[C@@H](N2CCN3C(=O)CCC3C2)CC1 (stereo partly drawn) [Example 43, 2-((cis)-4-(4-amino-5-(4-phenoxyphenyl)-7H-pyrrolo[2,3-d]pyrimidin-7-yl)cyclohexyl)hexahydropyrrolo[1,2-a]pyrazin-6(2H)-one]	< 50
Nc1ncnc2c1c(-c1ccc(Oc3ccccc3)cc1)cn2[C@H]1CC[C@H](N2CCN3CCCC3C2)CC1 (stereo partly drawn) [Example 44, 7-((trans)-4-(hexahydropyrrolo[1,2-a]pyrazin-2(1H)-yl)cyclohexyl)-5-(4-phenoxyphenyl)-7H-pyrrolo[2,3-d]pyrimidin-4-amine]	< 50

Continued, values first:

IC50 [nM]	Structure (SMILES)
< 50	CC1CN([C@H]2CC[C@H](n3cc(-c4ccc(Oc5ccccc5)cc4)c4c(N)ncnc43)CC2)CCN1C (stereo partly drawn) [Example 22, 7-((trans)-4-(3,4-dimethylpiperazin-1-yl)cyclohexyl)-5-(4-phenoxyphenyl)-7H-pyrrolo[2,3-d]pyrimidin-4-amine]
< 50	C[C@H]1CN([C@H]2CC[C@H](n3cc(-c4ccc(Oc5ccccc5)cc4)c4c(N)ncnc43)CC2)CCN1C [Example 23, 7-((trans)-4-((S)-3,4-dimethylpiperazin-1-yl)cyclohexyl)-5-(4-phenoxyphenyl)-7H-pyrrolo[2,3-d]pyrimidin-4-amine]
< 50	C[C@@H]1CN([C@H]2CC[C@@H](n3cc(-c4ccc(Oc5ccccc5)cc4)c4c(N)ncnc43)CC2)CCN1C [Example 24, 7-((cis)-4-((R)-3,4-dimethylpiperazin-1-yl)cyclohexyl)-5-(4-phenoxyphenyl)-7H-pyrrolo[2,3-d]pyrimidin-4-amine]
< 50	CN1CCN([C@H]2CC[C@H](n3cc(-c4ccc(Oc5ccccc5)cc4)c4c(N)ncnc43)CC2)CC1(C)C [Example 27, 5-(4-phenoxyphenyl)-7-((trans)-4-(3,3,4-trimethylpiperazin-1-yl)cyclohexyl)-7H-pyrrolo[2,3-d] pyrimidin-4-amine]
50 to 250	CC[C@H]1CN([C@H]2CC[C@H](n3cc(-c4ccc(Oc5ccccc5)cc4)c4c(N)ncnc43)CC2)CCN1 [Example 29, 7-((trans)-4-((S)-3-ethylpiperazin-1-yl)cyclohexyl)-5-(4-phenoxyphenyl)-7H-pyrrolo[2,3-d]pyrimidin-4-amine]
50 to 250	CC[C@H]1CN([C@H]2CC[C@@H](n3cc(-c4ccc(Oc5ccccc5)cc4)c4c(N)ncnc43)CC2)CCN1 [Example 30, 7-((cis)-4-((S)-3-ethylpiperazin-1-yl)cyclohexyl)-5-(4-phenoxyphenyl)-7H-pyrrolo[2,3-d]pyrimidin-4-amine]
< 50	Nc1ncnc2c1c(-c1ccc(Oc3ccccc3)cc1)cn2[C@H]1CC[C@H](N2CCNC3(CC3)C2)CC1 [Example 35, 7-((trans)-4-(4,7-diazaspiro[2.5]octan-7-yl)cyclohexyl)-5-(4-phenoxyphenyl)-7H-pyrrolo[2,3-d]pyrimidin-4-amine]
50 to 250	Nc1ncnc2c1c(-c1ccc(Oc3ccccc3)cc1)cn2[C@H]1CC[C@@H](N2CCNC3(CC3)C2)CC1 [Example 36, 7-((cis)-4-(4,7-diazaspiro[2.5]octan-7-yl)cyclohexyl)-5-(4-phenoxyphenyl)-7H-pyrrolo[2,3-d]pyrimidin-4-amine]
< 50	Nc1ncnc2c1c(-c1ccc(Oc3ccccc3)cc1)cn2[C@H]1CC[C@H](N2CCN(N)CC2)CC1 [Example 38, 7-((trans)-4-(4-aminopiperazin-1-yl)cyclohexyl)-5-(4-phenoxyphenyl)-7H-pyrrolo[2,3-d]pyrimidin-4-amine]
< 50	Nc1ncnc2c1c(-c1ccc(Oc3ccccc3)cc1)cn2[C@H]1CC[C@@H](N2CCN(N)CC2)CC1 [Example 39, 7-((cis)-4-(4-aminopiperazin-1-yl)cyclohexyl)-5-(4-phenoxyphenyl)-7H-pyrrolo[2,3-d]pyrimidin-4-amine]
250 to 10000	Nc1ncnc2c1c(-c1ccc(Oc3ccccc3)cc1)cn2[C@H]1CC[C@@H](N2CCN3CCCC3C2)CC1 (stereo partly drawn) [Example 45, 7-((cis)-4-(hexahydropyrrolo[1,2-a]pyrazin-2(1H)-yl)cyclohexyl)-5-(4-phenoxyphenyl)-7H-pyrrolo[2,3-d]pyrimidin-4-amine]
< 50	Nc1ncnc2c1c(-c1ccc(Oc3ccccc3)cc1)cn2[C@H]1CC[C@H](N2CCN3CCC[C@H]3C2)CC1 [Example 46, 7-((trans)-4-((S)-hexahydropyrrolo[1,2-a]pyrazin-2(1H)-yl)cyclohexyl)-5-(4-phenoxyphenyl)-7H-pyrrolo[2,3-d]pyrimidin-4-amine]
50 to 250	Nc1ncnc2c1c(-c1ccc(Oc3ccccc3)cc1)cn2[C@H]1CC[C@@H](N2CCN3CCC[C@H]3C2)CC1 [Example 47, 7-((cis)-4-((S)-hexahydropyrrolo[1,2-a]pyrazin-2(1H)-yl)cyclohexyl)-5-(4-phenoxyphenyl)-7H-pyrrolo[2,3-d]pyrimidin-4-amine]
< 50	Nc1ncnc2c1c(-c1ccc(Oc3ccccc3)cc1)cn2[C@H]1CC[C@H](N2CCN3CCC[C@@H]3C2)CC1 [Example 48, 7-((trans)-4-((R)-hexahydropyrrolo[1,2-a]pyrazin-2(1H)-yl)cyclohexyl)-5-(4-phenoxyphenyl)-7H-pyrrolo[2,3-d]pyrimidin-4-amine]
< 50	Nc1ncnc2c1c(-c1ccc(Oc3ccccc3)cc1)cn2[C@H]1CC[C@@H](N2CCN3CCC[C@@H]3C2)CC1 [Example 49, 7-((cis)-4-((R)-hexahydropyrrolo[1,2-a]pyrazin-2(1H)-yl)cyclohexyl)-5-(4-phenoxyphenyl)-7H-pyrrolo[2,3-d]pyrimidin-4-amine]
50 to 250	CC1(N)CCN([C@H]2CC[C@H](n3cc(-c4ccc(Oc5ccccc5)cc4)c4c(N)ncnc43)CC2)CC1 [Example 50, 7-((trans)-4-(4-amino-4-methylpiperidin-1-yl)cyclohexyl)-5-(4-phenoxyphenyl)-7H-pyrrolo[2,3-d]pyrimidin-4-amine]
< 50	CC1(N)CCN([C@H]2CC[C@@H](n3cc(-c4ccc(Oc5ccccc5)cc4)c4c(N)ncnc43)CC2)CC1 [Example 51, 7-((cis)-4-(4-amino-4-methylpiperidin-1-yl)cyclohexyl)-5-(4-phenoxyphenyl)-7H pyrrolo[2,3-d]pyrimidin-4-amine]
